According to patent publication US12011421B2, “Curcuphenol compounds for increasing MHC-I expression” (Cava Healthcare Inc., priority 2013, dated 2024):

Tests used:
[1] = tested on: TC1/A9 murine lung tumor cells; test: Cell toxicity in A9 cells by PI exclusion and intact cell number; format: cell-based; details: FIG. 11B
Procedure: (§1) Curcuphenol and four curcuphenol analogs (see FIG. 10) were synthesized and tested for the ability to increase MHC-I expression in TC1/A9 murine lung tumor cells. Toxicity was also measured by propidium iodide (PI) exclusion.

MHC-I = MHC-I expression in TC1/A9 murine lung tumor cells; format: cell-based; details: FIG. 11A
Procedure: as §1

| Compound | toxicity by propidium iodide (PI) exclusion and intact cell number [1] | MHC-I expression relative to controls (MHC-I) |
| --- | --- | --- |
| CC(C)=CCC[C@H](C)c1ccc(C)cc1O (stereo in doubt) [curcuphenol, phenol,2-(1,5-dimethyl-4-hexenyl)-5-methyl-, (S)—] | acceptable levels of toxicity | significantly increasing MHC-I expression |
| CC(C)=CCCCc1ccc(C)cc1O [PC-02/113] | acceptable levels of toxicity | significantly increasing MHC-I expression |
